In publication PMC10482825 (Scientific Reports, 2023):
Converted amounts (≈) assume the structure as drawn. Where a SMILES comes first, the peptide text is derived from it.

Tests used:
[1] = system: MRSA; type: cell-based, Methicillin-resistant Staphylococcus aureus (ATCC, BAA-41); settings: micro-broth dilution, 3 h peptide treatment then MHB 18 h, 37 °C, OD 600 nm
Source text: (§1) The microbial strains used in this study were Bacillus subtilis (ATCC, 11774), Candida albicans (TIMM, 1768), Enterococcus faecalis (ATCC, 33186), Escherichia coli (ATCC, 11775), Klebsiella pneumoniae (ATCC, 13883), Methicillin-resistant Staphylococcus aureus (ATCC, BAA-41), Pseudomonas aeruginosa (ATCC, 10145), Salmonella enterica (ATCC, 14028), Serratia marcescens (ATCC, 13880), Staphylococcus aureus (ATCC, 25923) and Vibrio parahaemolyticus (ATCC, 17802). All microbial strains were cultivated overnight at 37 °C and 200 rpm, then subcultured and incubated for 3 h under the same incubation conditions to obtain the mid-logarithmic growth phase. The cultivated cells were washed twice with 10 mM Tris–HCl containing 5 mM D-glucose at pH 7.4 and suspended in the same buffer to be used in different assays, as previously described.
(§2) As a conclusive quantitative assessment, broth microtiter assay was used to determine the MIC values of each cryptide against B. subtilis, MRSA, S. enterica, P. aeruginosa, V. parahaemolyticus and C. albicans by following the guidelines of the Clinical and Laboratory Standards Institute (CLSI)[67], with slight modifications. Eighty microliters of 5 × 10^4 CFU/ml of each pathogen were dispensed into a 96-well polypropylene microtiter plate. The wells were then treated with 20 µl of serially diluted cryptides for 3 h at 37 °C. Gentamicin was used for positive controls at 0.2 mg/ml while an equivalent volume of acidified water was used for negative controls. The plates were then topped up with a final concentration of 1 × Mueller Hinton Broth (MHB) and incubated for 18 h under the same incubation conditions. MIC was detected as the lowest concentration of each cryptide that prevents the optically detectable microbial growth at OD = 600 nm.

[2] = system: S. enterica; type: cell-based, Salmonella enterica (ATCC, 14028); settings: micro-broth dilution, 3 h peptide treatment then MHB 18 h, 37 °C, OD 600 nm
Source text: as §1, §2

[3] = system: P. aeruginosa; type: cell-based, Pseudomonas aeruginosa (ATCC, 10145); settings: micro-broth dilution, 3 h peptide treatment then MHB 18 h, 37 °C, OD 600 nm
Source text: as §1, §2

[4] = system: C. albicans; type: cell-based, Candida albicans (TIMM, 1768); settings: micro-broth dilution, 3 h peptide treatment then MHB 18 h, 37 °C, OD 600 nm
Source text: as §1, §2

[5] = system: Caco-2; type: cell-based, human; settings: 24 h, serum-free medium, MTT, 37 °C, 5% CO2; mean ± SD
Method: (§3) The used mammalian cell lines in our study were colorectal adenocarcinoma (Caco2, ATCC-HTB-37), colorectal carcinoma (HCT 116, ATCC-CCL-247), lung carcinoma (A549, ATCC- CCL-185), cervical cancer cells (HeLa, ATCC-CCL-2), neuroblastoma (SH-SY5Y, ATCC- CRL-2266), rhabdomyosarcoma (RD, ATCC- CCL-136) and human embryonic kidney cells (HEK 293, ATCC- CRL-1573). All the cells were maintained into Dulbecco’s Modified Eagle’s Medium (DMEM) supplemented with 10% heat-inactivated fetal bovine serum, 2 mM L-Glutamine, 100 U/ml penicillin–streptomycin (Pen/Strep) at 37 °C in 5% CO2 humidified incubator.
(§4) First, the cytotoxic effect of 24 h serum deprivation on all the selected cell lines was evaluated by MTT assay, following standard protocols. Briefly, cells were seeded and maintained at 37 °C and 5% CO2 in 24-well plates until they reached 75–80% confluency (zero time). Following washing twice with 1X PBS, cells were incubated in a serum-free medium for 24 h, under the same incubation conditions. The cell viability percentages were calculated and compared to zero time as 100% viability to nullify any possible effects of serum deprivation. Thence, the cell viability percentage of each cell line in response to 24 h treatment with different concentrations of each cryptide in serum-free medium was calculated. […] All the measured cell viability percentages were normalised against the corresponding negative controls.

[6] = system: HeLa; type: cell-based, human; settings: 24 h, serum-free medium, MTT, 37 °C, 5% CO2; mean ± SD
Method: as §3, §4

[7] = type: cell-based; settings: 24 h, serum-free medium, MTT, 37 °C, 5% CO2; mean ± SD; read-out: IC50 (µM) A459
Method: as §3, §4

[8] = system: RD; type: cell-based; settings: 24 h, serum-free medium, MTT, 37 °C, 5% CO2; mean ± SD
Method: as §3, §4

[9] = system: HEK-293; assay: MTT cytotoxicity on normal cells; type: cell-based, human; settings: 25 µM (highest tested concentration), 24 h, serum-free medium
Method: as §3, §4

[10] = system: B. subtilis; type: cell-based, Bacillus subtilis (ATCC, 11774); settings: 20 µl of wells without growth on agar, 18 h, 37 °C
[11] = system: MRSA; type: cell-based, Methicillin-resistant Staphylococcus aureus (ATCC, BAA-41); settings: 20 µl of wells without growth on agar, 18 h, 37 °C
[12] = system: S. enterica; type: cell-based, Salmonella enterica (ATCC, 14028); settings: 20 µl of wells without growth on agar, 18 h, 37 °C
[13] = system: P. aeruginosa; type: cell-based, Pseudomonas aeruginosa (ATCC, 10145); settings: 20 µl of wells without growth on agar, 18 h, 37 °C
[14] = system: C. albicans; type: cell-based, Candida albicans (TIMM, 1768); settings: 20 µl of wells without growth on Sabouraud 4% Dextrose Agar, 18 h, 37 °C

RHCLRSKRPPNVCPH [AD4, cationic cryptide from P. vannamei precursor DN34505 (Pl-crustin 2), chemically synthesised]
MIC (µM) MRSA [1]: 6.25 µM | MIC (µM) S. enterica [2]: 3.12 µM | MIC (µM) P. aeruginosa [3]: > 50 µM | MIC (µM) C. albicans [4]: 25 µM | IC50 [5]: 5.4 ± 0.7 µM | IC50 [6]: 10.8 ± 0.3 µM | IC50 [7]: 8.8 ± 1.1 µM | IC50 [8]: 15 ± 0.8 µM | Cell death of HEK-293 [9]: less than 10% | MBC (µM) B. subtilis [10]: 1.56 µM | MBC (µM) MRSA [11]: 12.5 µM | MBC (µM) S. enterica [12]: 3.12 µM | MBC (µM) P. aeruginosa [13]: > 50 µM | MFC (µM) C. albicans [14]: 25 µM

CSCC[C@H](NC(=O)[C@H](CCCCN)NC(=O)CNC(=O)[C@H](CCCCN)NC(=O)[C@H](Cc1ccc(O)cc1)NC(=O)[C@H](CC(N)=O)NC(=O)[C@H](CC(C)C)NC(=O)[C@H](CCC(N)=O)NC(=O)[C@H](CC(C)C)NC(=O)[C@@H](N)CCCNC(=N)N)C(=O)N[C@@H](Cc1c[nH]c2ccccc12)C(=O)N[C@@H](CS)C(=O)N1CCC[C@H]1C(=O)NCC(=O)N[C@@H](Cc1c[nH]c2ccccc12)C(=O)O [AD11] (H-RLQLNYKGKMWCPGW-OH)
MIC (µM) MRSA [1]: 6.25 µM (≈ 11.8 µg/mL) | MIC (µM) S. enterica [2]: 1.56 µM (≈ 2.93 µg/mL) | MIC (µM) P. aeruginosa [3]: 25 µM (≈ 47 µg/mL) | MIC (µM) C. albicans [4]: 25 µM (≈ 47 µg/mL) | IC50 [5]: 26.8 ± 0.4 µM | IC50 [6]: 16.8 ± 0.6 µM | IC50 [7]: 11.1 ± 0.7 µM | IC50 [8]: 19.2 ± 0.9 µM | Cell death of HEK-293 [9]: less than 10% | MBC (µM) B. subtilis [10]: 0.78 µM (≈ 1.47 µg/mL) | MBC (µM) MRSA [11]: 12.5 µM (≈ 23.5 µg/mL) | MBC (µM) S. enterica [12]: 1.56 µM (≈ 2.93 µg/mL) | MBC (µM) P. aeruginosa [13]: > 50 µM | MFC (µM) C. albicans [14]: 25 µM (≈ 47 µg/mL)

CC(C)C[C@H](NC(=O)[C@H](CCCNC(=N)N)NC(=O)[C@H](Cc1c[nH]c2ccccc12)NC(=O)[C@H](CCCNC(=N)N)NC(=O)[C@H](CC(C)C)NC(=O)[C@@H](N)Cc1ccccc1)C(=O)N[C@@H](CCCCN)C(=O)N[C@@H](Cc1ccccc1)C(=O)N[C@@H](CCCCN)C(=O)N[C@@H](CO)C(=O)N[C@@H](CCCCN)C(=O)N[C@H](C(=O)N[C@@H](Cc1c[nH]c2ccccc12)C(=O)N[C@@H](CS)C(=O)N1CCC[C@H]1C(=O)O)C(C)C [AD7] (H-FLRWRLKFKSKVWCP-OH)
MIC (µM) MRSA [1]: 3.12 µM (≈ 6.22 µg/mL) | MIC (µM) S. enterica [2]: 0.78 µM (≈ 1.56 µg/mL) | MIC (µM) P. aeruginosa [3]: 6.25 µM (≈ 12.5 µg/mL) | MIC (µM) C. albicans [4]: 1.56 µM (≈ 3.11 µg/mL) | IC50 [5]: 11.2 ± 0.7 µM | IC50 [6]: 101.5 ± 0.9 µM | IC50 [7]: 8.5 ± 0.6 µM | IC50 [8]: 97.8 ± 0.2 µM | Cell death of HEK-293 [9]: less than 10% | MBC (µM) B. subtilis [10]: 0.39 µM (≈ 0.778 µg/mL) | MBC (µM) MRSA [11]: 3.12 µM (≈ 6.22 µg/mL) | MBC (µM) S. enterica [12]: 0.78 µM (≈ 1.56 µg/mL) | MBC (µM) P. aeruginosa [13]: 25 µM (≈ 49.9 µg/mL) | MFC (µM) C. albicans [14]: 6.25 µM (≈ 12.5 µg/mL)
